# Patent US8937089B2, “Synergistic mixtures of anthranilamide invertebrate pest control agents” (priority 2004, dated 2015)
# Where two headings read alike, the source gives them in different places.
# Columns and labels:
# Type in all cases: in vivo
# [1] = system: cabbage looper (Trichoplusia ni); test: Test J: foliar control of cabbage looper, sprayed cabbage leaves, % mortality and % feeding; settings: for mortality at […]: Trichoplusia ni, foliar, read-out: % mortality (observed)
# Description: For evaluating control of beet armyworm (Spodoptera exigua), methomyl was in the liquid formulation as Lannate® LV (29% of active ingredient). Compound 1 was in a water dispersible granules (WDG) formulation with 35% active ingredient. The test compounds were dissolved in water. Enough water was added to make 100 ppm of active ingredient for each compound. Serial dilutions were made to obtain the appropriate concentrations. To obtain the desired mixture concentrations of each compound, twice the desired concentration of each of the two mixture partner compounds were mixed together in equal volumes.
# (§1) The diluted solutions of the test compounds were sprayed to run-off on three-week-old tomato plants. The plants were placed on a rotating turntable sprayer (10 rpm). Test solutions were applied using a flat fan air-assisted nozzle (Spraying Systems 122440) at 10 psi (69 kPa). After each treated plant had dried, leaves were excised from the treated plant. The leaves were cut into pieces, which were placed singly into 5.5 cm-by-3.5 cm cells of a sixteen-cell plastic tray. Each cell contained a 2.5-cm square of moistened chromatography paper to prevent desiccation. One insect was placed in each cell. There two trays per treatment. Trays were held in the growth chamber at 25° C., 16-hour light:8-hour dark, 60% relative humidity for 4 days.
# (§2) For evaluating foliar control of cabbage looper (Trichoplusia ni), cabbage (var. Stonehead) plants were grown in Metromix potting soil in 10-cm pots in aluminum trays to test size (28 days, 3-4 full leaves). Test compounds were formulated and sprayed on test plants as described for Test I. After drying for 2 hours, the treated leaves were excised and infested with one cabbage looper per cell and covered. The test units were placed on trays and put in a growth chamber at 25° C. and 60% relative humidity for 4 days.
# [2] = system: silverleaf whitefly (Bemisia argentifolii); test: Test G: systemic control of silverleaf whitefly, drip irrigation of tomato plant in greenhouse
# Description: For evaluating systemic control of silverleaf whitefly (Bemisia argentifolii), each test unit consisted of a 10-inch (25.4 cm) pot with sand, and a tomato plant (var. Tiny Tim) at the 5 to 10 true leaf stage. Oxamyl was in the liquid formulation as Vydate® L and compound 1 was in a wettable powder formulation with 50% active ingredient. Test compounds in approximately 200 mL of water per pot were applied by drip irrigation in the greenhouse. Whitefly activity was evaluated on a naturally occurring population by removing 5 old leaves with clearly visible nymphs. When there were no leaves with clearly visible nymphs, 5 old leaves were removed at random. Leaves were evaluated for dead and live nymphs. For all tests, analysis was conducted by using Fisher's LSD test for means separation, at p=0.05 (see. K. A. Gomez and A. A. Gomez, “Statistical Procedures for Agricultural Research”, 2nd edition, John Wiley & Sons, New York, 680 pp). Mean comparisons were made within each evaluation date only.
# [3] = system: beet armyworm (Spodoptera exigua); test: Test H: systemic control of beet armyworm, drip irrigation of tomato plant, leaf discs, % mortality and % feeding; settings: mg ai/pot: Oxamyl 100, Compound 1 20, Oxamyl + Compound 1 100 + 20
# Description: For evaluating systemic control of beet armyworm (Spodoptera exigua), each test unit consisted of a 10-inch (25.4 cm) pot filled with sand and containing a tomato plant (var. Tiny Tim) at the 5 to 10 true leaf stage. Oxamyl was in the liquid formulation as Vydate® L and compound 1 was in a wettable powder formulation with 50% active ingredient. Test compounds in approximately 200 mL of water per pot were applied by drip irrigation in the greenhouse. The plants were sampled at indicated date by cutting discs of the leaf material and placing each disc on a layer of agar gel in a 16-well, 1.5 oz. cup tray (B-150-S 0.028 Natural, Clear Pack Co., Franklin Park, Ill. 60131). One beet armyworm larva was added to each cell and the cells were covered. Trays were held in the growth chamber at 25° C., 16-hour light:8-hour dark, 60% relative humidity for 4 days. The percentage of mortality (abbreviated as % Morta.) and percentage of feeding (abbreviated as % feed), were visually assessed; the results are listed in Table 9. For all tests, analysis was conducted by using the LSD test. Mean comparisons were made within each evaluation date only.
# [4] = system: diamondback moth (Plutella xylostella); test: whole plant or invertebrate
# Description: The test compounds were dissolved in water. […] Serial dilutions were made to obtain the appropriate concentrations. To obtain the desired mixture concentrations of each compound, twice the desired concentration of each of the two mixture partner compounds were mixed together in equal volumes.
# as §1, with “After each treated plant had dried, leaves were excised from the treated plant.” left out
# as §2, with “evaluating” for “evaluating foliar”, “diamondback moth (Plutella xylostella),” for “cabbage looper (Trichoplusia ni),”, “leaves) the plants were sprayed to the point of runoff using the turntable sprayer as described in Test I.” for “leaves).”
# [5] = Day 6, mg ai/pot: Oxamyl 100, Compound 1 20, Oxamyl + Compound 1 100 + 20
# [6] = Day 13, mg ai/pot: Oxamyl 100, Compound 1 20, Oxamyl + Compound 1 100 + 20
# [7] = Day 20, mg ai/pot: Oxamyl 100, Compound 1 20, Oxamyl + Compound 1 100 + 20
# [8] = Day 13 - old growth (first of two heads so printed, c4)
# [9] = Day 13 - old growth (first of two heads so printed, c5)
# [10] = Day 13 - old growth (second of two heads so printed, c6)
# [11] = Day 13 - old growth (second of two heads so printed, c7)
smiles,measurement,setting,value
"CNC(=O)c1cc(Cl)cc(C)c1NC(=O)c1cc(Br)nn1-c1ncccc1Cl [Compound 1, 3-bromo-N-[4-chloro-2-methyl-6-[(methylamino)carbonyl]phenyl]-1-(3-chloro-2-pyridinyl)-1H-pyrazole-5-carboxamide]",mortality at […],[1]; Compound 1 0.032 ppm,9%
same,mortality at […],[1]; Compound 1 0.057 ppm,22%
same,% Mortality,[2]; [5],44%
same,Nymphs number,[2]; [5],316
same,% Mortality,[2]; [6],99%
same,Nymphs number,[2]; [6],194
same,% Mortality,[2]; [7],100%
same,Nymphs number,[2]; [7],300
same,% Morta.,[3]; Day 6 new & old,99%
same,% feed,[3]; Day 6 new & old,0%
same,% Morta.,[3]; [8],100%
same,% feed,[3]; [9],0%
same,% Morta.,[3]; [10],97%
same,% feed,[3]; [11],0%
same,% Morta.,[3]; Day 20 - new growth,100%
same,% feed,[3]; Day 20 - new growth,0%
same,% Morta.,[3]; Day 20 - old growth,100%
same,% feed,[3]; Day 20 - old growth,0%
same,% feeding,[4]; Compound 1 0.007 ppm,10.0%
same,% feeding,[4]; Compound 1 0.030 ppm,0%
same,mortality at 0.007 ppm,"[4]; Plutella xylostella, in Brassica oleracea, Compound 1 0.007 ppm, read-out: % mortality (observed)",13%
same,mortality at […],"[4]; Plutella xylostella, in Brassica oleracea, Compound 1 0.013 ppm, read-out: % mortality (observed)",34%
same,mortality at 0.03 ppm,"[4]; Plutella xylostella, in Brassica oleracea, Compound 1 0.030 ppm, read-out: % mortality (observed)",78%
same,mortality at 0.01 ppm,"[4]; Plutella xylostella, in Brassica oleracea, rate 0.01 ppm, read-out: % mortality (obs)",87%
same,mortality at 0.02 ppm,"[4]; Plutella xylostella, in Brassica oleracea, rate 0.02 ppm, read-out: % mortality (obs)",77%
same,mortality at 0.04 ppm,"[4]; Plutella xylostella, in Brassica oleracea, rate 0.04 ppm, read-out: % mortality (obs)",93%
COC(=O)N(C(=O)N1CO[C@@]2(C(=O)OC)Cc3cc(Cl)ccc3C2=N1)c1ccc(OC(F)(F)F)cc1 [Indoxacarb],% feeding,[1]; Indoxacarb 0.146 ppm,68%
same,% mortality (observed),[1]; Indoxacarb 0.146 ppm,31%
same,% feeding,[4]; Indoxacarb 0.147 ppm,13.8%
same,% mortality (observed),[4]; Indoxacarb 0.147 ppm,33%
same,% feeding,[4]; Indoxacarb 0.226 ppm,3.5%
same,% mortality (observed),[4]; Indoxacarb 0.226 ppm,25%
same,% feeding,[4]; Indoxacarb 0.340 ppm,0.5%
same,% mortality (observed),[4]; Indoxacarb 0.340 ppm,47%
same,% feeding,[4]; Indoxacarb 1 ppm,0.1%
same,% mortality (observed),[4]; Indoxacarb 1 ppm,50%
CNC(=O)O/N=C(\SC)C(=O)N(C)C [Oxamyl],% Mortality,[2]; [5],6%
same,Nymphs number,[2]; [5],380
same,% Mortality,[2]; [6],34%
same,Nymphs number,[2]; [6],506
same,% Mortality,[2]; [7],28%
same,Nymphs number,[2]; [7],404
same,% Morta.,[3]; Day 6 new & old,26%
same,% feed,[3]; Day 6 new & old,49%
same,% Morta.,[3]; [8],35%
same,% feed,[3]; [9],43%
same,% Morta.,[3]; [10],40%
same,% feed,[3]; [11],40%
same,% Morta.,[3]; Day 20 - new growth,25%
same,% feed,[3]; Day 20 - new growth,92%
same,% Morta.,[3]; Day 20 - old growth,31%
same,% feed,[3]; Day 20 - old growth,65%
